Assay results as given in article PMC2185891 (The Journal of Experimental Medicine, 1980).

Legend:
U937 cells = assay: Chemotaxis of U937 cells, modified Boyden chambers; assay type: cell-based, human; settings: U937 cells cultured 48 h with lymphokines; Fig. 4
[1] = system: human peripheral blood monocytes; settings: ref M. C. Pike and R. Snyderman. Unpublished observation; cited from earlier work
[2] = biological target: T1, N-formylated peptide receptor on U937 cells (Homo sapiens, UniProt P21462); assay: fMet-Leu-[3H]Phe-binding assay on U937 cells; settings: U937 cells incubated with cytochalasin B
T1 sequence (P21462 1-350): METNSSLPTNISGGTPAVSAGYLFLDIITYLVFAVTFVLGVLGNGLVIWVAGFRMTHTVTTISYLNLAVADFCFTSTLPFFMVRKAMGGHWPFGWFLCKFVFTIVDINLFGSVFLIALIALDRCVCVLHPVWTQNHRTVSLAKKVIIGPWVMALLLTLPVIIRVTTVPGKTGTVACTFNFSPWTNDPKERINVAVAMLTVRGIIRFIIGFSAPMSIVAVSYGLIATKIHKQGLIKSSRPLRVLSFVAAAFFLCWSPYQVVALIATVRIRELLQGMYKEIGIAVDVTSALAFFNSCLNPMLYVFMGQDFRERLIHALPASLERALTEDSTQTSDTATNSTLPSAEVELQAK

fMet-Met-Met [N-formyl-methionyl-methionyl-methionine]
relative chemotactic potency (U937 cells): approximately equipotent | potency for human monocyte chemotaxis relative to fMet-Leu-Phe [1]: less than that of fMet-Leu-Phe

C=C1[C@@H](C)[C@H]2[C@H](Cc3ccccc3)NC(=O)[C@]23OC(=O)/C=C/[C@H](O)CCC[C@@H](C)C/C=C/[C@H]3[C@@H]1O [cytochalasin B]
effect on amount of fMet-Leu-[3H]Phe bound [2]: did not affect

N-formyl-norleucyl-leucyl-phenylalanine [fNle-Leu-Phe]
relative chemotactic potency (U937 cells): approximately equipotent | potency for human monocyte chemotaxis relative to fMet-Leu-Phe [1]: less than that of fMet-Leu-Phe
